Experimental data taken from patent US9181172B2, “Rhein conjugates, preparation method thereof and their uses in producing medicines for treating diabetic nephrosis, intestinal adhesion and osteoarthritis” (priority 2005, dated 2015).
Where a name gives a salt, the structure may show the parent alone.

Assays:
Format in all cases: in vivo
mice [1] = assay: Capillary permeability of mice; settings: dosage 12 mg/kg
Protocol: Each group has 12 mice, administration: 0.20 ml/10 g. Mice in the model control group were administrated with isovolumic physiologic saline.

rats [2] = assay: Formation of cotton ball granuloma in rats (Example 59 Test 2); settings: 12 mg/kg intragastric, two weeks
Protocol: Rats were randomly divided into five groups (model control group, indomethacin group, rhein glucosamine large dose group and low dose group and rhein sodium group). Each group included 10 rats, and built models according to the method in the literature [Xu Shuyun, Methodology in Pharmacological Experiment (the 3rd version): 918]. The rats were administered by medicines from the day when starting the operation. […] The rats were killed in two weeks, and tests were performed according to the methods in the literature, the net weight of granulation was calculated, and t test was used for the intergroup comparison.

mice [3] = assay: Intestinal propulsion in mice; settings: dosage 12 mg/kg, intravenous injection
Protocol: Fifty mice, male, weighting from 18 to 22 g, were randomly divided into five groups, namely, model control group, domperidone group, rhein sodium group, rhein glucosamine large dose group and low dose group.
Each group has 10 mice respectively. The mice were fasted, but water was not prohibited, and then administered with medicines by intravenous injection. After that, tests were carried on immediately according to the methods in the literature[Xu Shuyun, Methodology in Pharmacological Experiment (the 3rd version): 1313]. The intestinal propulsive rates were calculated, and t test was used for the intergroup comparison.

rats [4] = assay: Intestinal adhesion in rats; settings: 6 mg/kg once a day, 7th day
Protocol: Rats were fasted for 12 h and models were built according to the methods in the literature [Xu Shuyun, Methodology in Pharmacological Experiment (the 3rd version): 1335]. The rats were randomly divided into five groups, namely, model control group, dexamethasone group, rhein sodium group, rhein glucosamine large dose group and low dose group. Each group included 12 rats. […] The rats of the model group were administered with the same volume of NS, while the rats of the positive control group were administered with dexamethasone, administered once every two days, dose: 10 mg/kg. The administration volume was the same as the treatment group. The rats were killed on the 7th day and carried on laparotomy. Adhesion degree was classified and scored respectively. The classification and score of the observed index-adhesion degree can refer to the five-grade classification method prepared by Nair, and determine the classification standard, see Schedule 13. Intestinal adhesion classification adopts Ridit analysis. The test results are as follows (Table 14): […]

mice [5] = assay: Xylene-induced swelling of auricle in mice; settings: ig 40 mg/kg, 3 days
Protocol: Fifty male Kunming mice were selected, weighing 18-22 g each, and randomly divided into five groups, namely, model control group, aspirin group, rhein sodium group, rhein glucosamine large dose group and low dose groups. Each group had 10 mice respectively. The mice were administered with medicines by intragastric administration every day, for 0.2 ml/10 g body weight. The mice of the model control group were administered with equal volume of physiological saline, once every day, continuously administration for 3 days. After 60 minutes of the final administration, carried on test according to the method in the literature [Xu Shuyun, Methodology in Pharmacological Experiment (the 3rd version): 911]. The sweeling degree of auricle was calculated and statistical analysis was conducted.

mice [6] = assay: Immune function in mice (clearance index, phagocytic index); settings: ig 40 mg/kg, 3 days
Protocol: Fifty Kunming mice, half male and half female, weighing 18-22 g each were selected and randomly divided into five groups, namely, model control group, cyclophosphamide group, rhein sodium group, rhein glucosamine large dose group and small dose group, 10 mice for each group. The mice were administered with medicines by intragastric administration, 0.2 ml/10 g body weight, once every day and administered for 3 days in succession. After the mice were administered with medicines, 30 minutes later, test was carried on according to the method in the literature [Xu Shuyun, Methodology in Pharmacological Experiment (the 3rd version): 934]. The […] and corrected phagocytic index α were calculated, and t-test was conducted for statistical analysis.

## O=C(O)c1cc(O)c2c(c1)C(=O)c1cccc(O)c1C2=O [Rhein sodium salt, rhein sodium salt]
Mice [1]
  absorbance value: 0.494 ± 0.134
Rats [2]
  net weight of granulation: 15.87 ± 3.31 mg
Mice [3]
  Propulsive rate: 51.69 ± 7.1 %
Rats [4]; number of 12 rats with completely no adhesion
  Rating of adhesion degree 0: 1
Rats [4]; number of 12 rats with more than two adhering zones
  Rating of adhesion degree III: 3
Rats [4]; number of 12 rats with one adhering zone
  Rating of adhesion degree I: 4
Rats [4]; number of 12 rats with organs adhering to abdominal wall directly
  Rating of adhesion degree IV: 2
Rats [4]; number of 12 rats with two adhering zones
  Rating of adhesion degree II: 2
Mice [5]
  inhibition rate: 29.8%
  swelling degree of auricle: 12.5 ± 2.2 mg
Mice [6]
  Clearance index (k): 0.0272 ± 0.0124
  Phagocytic index (α): 4.9134 ± 0.7498
